One test concerns the target T1, GAβ-dependent amyloid fibril formation (Human Aβ1-40 + GM1-containing liposome) (Homo sapiens, UniProt P05067).
T1 construct: Human Aβ1-40 (cat. #4307-v, prepared by Peptide Institute); purchased Peptide Institute 4307-v
The experiment in a line: Thioflavin T (ThT) assay of GAβ-dependent amyloid fibril formation (Aβ1-40 with GM1-containing liposome). The test is classed as biochemical. The conditions noted are these: @5 μM; read-out: ThT Inhibitory activity (% inhibition). A digest of the protocol:
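Human Aβ1-40 (75 μM stock) pre-incubated 10 min at room temperature with compound (75 or 15 μM solution), then GM1-containing cholesterol/sphingomyelin liposome added and incubated 37° C, 18 hours. Fibrils quantified by ThT fluorescence (ex 430/em 490 nm, pH 8.5 glycine buffer); inhibition as ratio to compound-free control.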
T1 sequence (P05067 672-711 limits assumed): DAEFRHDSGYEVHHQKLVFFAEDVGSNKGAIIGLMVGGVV
For `O=C(NC(CO)c1nc(-c2ccc(O)cc2)no1)c1ccc(Cl)cc1` (centres unmarked) [Compound 78, 4-chloro-N-{2-hydroxy-1-[3-(4-hydroxyphenyl)-1,2,4-oxadiazol-5-yl]ethyl}benzamide], the inhibition at 5 µM was determined as 52%.

Still in this test, the particulars now being: @25 μM; read-out: ThT Inhibitory activity (% inhibition).
As to `O=C(N[C@@H](CO)c1nc(-c2c[nH]c3ncccc23)no1)c1ccc(F)cc1` [Compound 229, 4-fluoro-N-[(1S)-2-hydroxy-1-(3-{1H-pyrrolo[2,3-b]pyridin-3-yl}-1,2,4-oxadiazol-5-yl)ethyl]benzamide], the inhibition at 25 µM is 71%.
On the same count and under the same terms, with `O=C(NC(CO)c1nc(-c2ccc(O)cc2)no1)c1ccc(Cl)cc1` (centres unmarked) [Compound 78, 4-chloro-N-{2-hydroxy-1-[3-(4-hydroxyphenyl)-1,2,4-oxadiazol-5-yl]ethyl}benzamide] the figure was 89%.
For the compound `O=C(N[C@@H](CO)c1nc(-c2ccc(C(F)F)cc2)no1)c1ccc(Cl)cc1` [Compound 167], the inhibition at 25 µM turned out to be 98%.

Still in this test, the particulars now being: inhibition rate against amyloid fibril formation, final concentration of the compound 25 μM; 25 µM.
As for `O=C(NC(CO)c1nc(-c2ccc(C(F)(F)F)cc2)no1)c1ccc(F)cc1` (stereo in doubt) [Compound 152, 4-fluoro-N-[(1R)-2-hydroxy-1-{3-[4-(trifluoromethyl)phenyl]-1,2,4-oxa-diazol-5-yl}ethyl] benzamide], the “Inhibitory activity ABC evaluation” value is “B (40% or more and less than 80% were evaluated as B)”.

Staying with this test, now noted: inhibition rate against amyloid fibril formation, final concentration of the compound 25 μM; read-out: Inhibitory activity ABC evaluation.
For the compound `O=C(N[C@@H](CO)c1nnc(-c2ccc(O)c(F)c2)o1)c1ccc(Cl)cc1` [Compound 120, (S)-4-chloro-N-(1-(5-(3-fluoro-4-hydroxyphenyl)-1,3,4-oxadiazol-2-yl)-2-hydroxy-ethyl)benzamide], the inhibition at 25 µM is < 40%.
As to `O=C(Nc1ccc(Cl)cc1)NC1(c2nc(-c3ccc(OC(F)(F)F)cc3)no2)CCCC1` [Compound 36, 1-(4-chlorophenyl)-3-(1-[3-{4-(trifluoromethoxy)phenyl}-1,2,4-oxadiazol-5-yl]cyclopentyl)urea], the inhibition at 25 µM was < 40%.
In the case of `O=C(N[C@@H](CO)c1nc(-c2cc(F)cc(F)c2)no1)c1ccc(F)cc1` [Compound 218, N-[(1S)-1-[3-[3,5-difluorophenyl)-1,2,4-oxadiazol-5-yl]-2-hydroxyethyl]-4-fluorobenzamide], the inhibition at 25 µM was 40 to 80%.
Same read-out and setting: as for `O=C(NC(CO)c1nc(-c2ccc(C(F)(F)F)cc2)no1)c1cccc2cc[nH]c12` (centres unmarked) [Compound 184, N-(2-hydroxy-1-{3-[4-(trifluoromethyl)phenyl]-1,2,4-oxadiazol-5-yl}ethyl)-1H-indole-7-carboxamide], the figure is 40 to 80%; as for `O=C(N[C@@H](CO)c1nc(-c2ccc3cc[nH]c3c2)no1)c1ccc(F)cc1` [Compound 250, 4-fluoro-N-[(1S)-2-hydroxy-1-[3-(1H-indol-6-yl)-1,2,4-oxadiazol-5-yl]ethyl]benzamide], 40 to 80%.
In the case of `N[C@@H](Cc1c[nH]c2ccccc12)c1nc(-c2ccc(OC(F)(F)F)cc2)no1` [Compound 25, (S)-2-(1H-indole-3-yl)-1-[3-(4-trifluoromethoxyphenyl)-1,2,4-oxadiazole-5-yl]ethane-1-amine], the inhibition at 25 µM is > 80%.
With `O=C(N[C@@H](CO)c1noc(-c2ccc(OC(F)(F)F)cc2)n1)c1ccccc1` [Compound 128, (R)-N-(2-hydroxy-1-(5-(4-(trifluoro-methoxy)phenyl)-1,2,4-oxadiazol-3-yl)ethyl)benzamide], the inhibition at 25 µM lay in the range of 40 to 80%.
For the compound `O=C(N[C@H](CO)c1nc(-c2ccc(C(F)(F)F)cc2)no1)c1ccc(F)cc1` [Compound 212, 4-fluoro-N-[(1R)-2-hydroxy-1-{3-[4-(trifluoromethyl)phenyl]-1,2,4-oxadiazol-5-yl}ethyl]benzamide], the inhibition at 25 µM was in the range of 40 to 80%.
Turning to `N#Cc1ccc(N2CC(c3nc(-c4ccc(O)cc4)no3)CC2=O)cc1` (centres unmarked) [Compound 79, 4-[4-{3-(4-hydroxyphenyl)-1,2,4-oxadiazol-5-yl}-2-oxopyrrolidin-1-yl]benzonitrile], the inhibition at 25 µM was < 40%.
Turning to `O=C(NC(CNCCO)c1nnc(-c2ccc(OC(F)(F)F)cc2)o1)c1ccc(Cl)cc1` (centres unmarked) [Compound 119, 4-chloro-N-(2-((2-hydroxyethyl)amino)-1-(5-(4-(trifluoro-methoxy)phenyl)-1,3,4-oxadiazol-2-yl)ethyl) benzamide], the inhibition at 25 µM was in the range of 40 to 80%.
Take `O=C1CC(c2nc(-c3ccccc3)no2)CN1c1ccc(Cl)cc1` (centres unmarked) [Compound 43, 1-(4-chlorophenyl)-4-(3-phenyl-1,2,4-oxadiazol-5-yl) pyrrolidin-2-one]: the inhibition at 25 µM was in the range of 40 to 80%.
As to `Oc1ccc(-c2noc(C(O)Cc3c[nH]c4ccccc34)n2)cc1` (centres unmarked) [Compound 89, 4-[5-{1-hydroxy-2-(1H-indol-3-yl)ethyl}-1,2,4-oxadiazol-3-yl]phenol], the inhibition at 25 µM was 40 to 80%.
For the compound `O=C(N[C@@H](CO)c1nc(-c2c[nH]c3ccc(Br)cc23)no1)c1ccc(F)cc1` [Compound 247, N-[(1S)-1-[3-(5-bromo-1H-indol-3-yl)-1,2,4-oxadiazol-5-yl]-2-hydroxyethyl]-4-fluorobenzamide], the inhibition at 25 µM was 40 to 80%.
For `CCCN(C(=O)CCc1nc(-c2ccc(O)cc2)no1)c1cccc(Cl)c1` [Compound 19, N-(3-chlorophenyl)-3-{3-(4-hydroxyphenyl)-1,2,4-oxadiazol-5-yl}-N-propylpropanamide], the inhibition at 25 µM lay within 40 to 80%.
For the compound `CN(C)C(=O)C[C@H](NC(=O)c1ccc(Cl)cc1)c1nc(-c2ccc(OC(F)(F)F)cc2)no1` [Compound 87, (S)-4-chloro-N-(3-(dimethylamino)-3-oxo-1-[3-{4-(trifluoromethoxy)phenyl}-1,2,4-oxadiazol-5-yl]propyl) benzamide], the inhibition at 25 µM fell in the range of 40 to 80%.
On to `O=C(N[C@@H](CO)c1nc(-c2c[nH]c3ncccc23)no1)c1ccc(F)cc1` [Compound 229, 4-fluoro-N-[(1S)-2-hydroxy-1-(3-{1H-pyrrolo[2,3-b]pyridin-3-yl}-1,2,4-oxadiazol-5-yl)ethyl]benzamide], for which the inhibition at 25 µM was in the range of 40 to 80%.
As for `O=C(CCc1nc(-c2ccc3c(c2)OCCO3)no1)N1CCc2ccccc2C1` [Compound 17, 3-{3-(2,3-dihydrobenzo[b][1,4]dioxin-6-yl)-1,2,4-oxadiazol-5-yl}-1-{3,4-dihydroisoquinolin-2(1H)-yl}propan-1-one], the inhibition at 25 µM was 40 to 80%.
Turning to `O=C(c1ccc(Cl)cc1)N1C[C@H](O)C[C@H]1c1nc(-c2ccc(OC(F)(F)F)cc2)no1` [Compound 34, (3R,5S)-1-(4-chlorobenzoyl)-5-{3-[4-(trifluoromethoxy)phenyl]-1,2,4-oxadiazol-5-yl}pyrrolidin-3-ol], the inhibition at 25 µM lay within 40 to 80%.
On to `O=C(NC(CO)c1nc(-c2ccc(O)cc2)no1)c1ccc(Cl)cc1` (centres unmarked) [Compound 78, 4-chloro-N-{2-hydroxy-1-[3-(4-hydroxyphenyl)-1,2,4-oxadiazol-5-yl]ethyl}benzamide], for which the inhibition at 25 µM is > 80%.
With `NC[C@H](NC(=O)c1ccccc1)c1nc(-c2ccc(OC(F)(F)F)cc2)no1` [Compound 149, N-[(1S)-2-amino-1-{3-[4-(trifluoromethoxy)phenyl]-1,2,4-oxa-diazol-5-yl}ethyl] benzamide], the inhibition at 25 µM is < 40%.
Turning to `O=C(N[C@@H](CO)c1nc(-c2c[nH]c3cc(Cl)ccc23)no1)c1ccc(F)cc1` [Compound 263, N-[(1S)-1-[3-(6-chloro-1H-indol-3-yl)-1,2,4-oxadiazol-5-yl]-2-hydroxyethyl]-4-fluorobenzamide], the inhibition at 25 µM was in the range of 40 to 80%.
For the compound `CC(C)(NC(=O)c1ccc(Cl)cc1)c1nc(-c2ccc(OC(F)(F)F)cc2)no1` [Compound 20, 4-chloro-N-(2-[3-{4-(trifluoromethoxy)phenyl}-1,2,4-oxadiazol-5-yl]propan-2-yl)benzamide], the inhibition at 25 µM lay in the range of 40 to 80%.
Same read-out and setting: as for `O=C(N[C@@H](CO)c1nc(-c2c[nH]c3cc(F)ccc23)no1)c1ccc(F)cc1` [Compound 260, 4-fluoro-N-[(1S)-1-[3-(6-fluoro-1H-indol-3-yl)-1,2,4-oxadiazol-5-yl]-2-hydroxyethyl] benzamide], the figure is 40 to 80%.
Take `O=C(N[C@@H](CO)c1nc(-c2ccc(C(F)F)cc2)no1)c1ccc(Cl)cc1` [Compound 167]: the inhibition at 25 µM was > 80%.

For the origin of these results see patent US10538516B2, “Oxadiazole derivative and pharmaceutical containing same” (National Center for Geriatrics and Gerontology, priority 2015, dated 2020).
